# What was measured:
# Format in all cases: cell-based
# [1] = molecular target: T1, human prostanoid EP1 receptor (Homo sapiens, UniProt P34995); assay: FLIPR Ca2+ signaling antagonist assay, EP1 receptor stable cell line; details: HEK-293 EBNA stable cell line; standard agonist PGE2; NA = inactive (no antagonism or Kb 10,000 nM); PAg, Ag not defined
# T1 construct: expressed in transfected cells
# T1 sequence (P34995 1-402): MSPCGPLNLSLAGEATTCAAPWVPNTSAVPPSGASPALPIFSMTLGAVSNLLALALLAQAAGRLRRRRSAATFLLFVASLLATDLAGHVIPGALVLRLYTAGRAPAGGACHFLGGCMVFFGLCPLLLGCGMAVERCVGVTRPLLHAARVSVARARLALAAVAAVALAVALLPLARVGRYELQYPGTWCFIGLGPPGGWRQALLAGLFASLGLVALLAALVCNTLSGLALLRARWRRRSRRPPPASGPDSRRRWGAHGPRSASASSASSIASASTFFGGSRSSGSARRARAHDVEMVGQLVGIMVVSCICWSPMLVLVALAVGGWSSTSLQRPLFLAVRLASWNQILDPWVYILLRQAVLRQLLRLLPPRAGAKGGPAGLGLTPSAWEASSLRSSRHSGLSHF
# How it was run: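 Functional antagonism measured by Ca2+ flux at 37 °C. Agonist ranges were 10^−11 to 10^−5 M, or 10^−12 to 10^−6 M for TP with U-46619; PGE2 for EP1/EP3, BW 245C for DP1. Compound spanned 0.1–30 μM except TP, 0.067–1 μM.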
# [2] = molecular target: T2, human prostanoid EP3 receptor (Homo sapiens, UniProt P43115); assay: FLIPR Ca2+ signaling antagonist assay, EP3 receptor stable cell line; details: HEK-293 EBNA stable cell line; standard agonist PGE2; NA = inactive (no antagonism or Kb 10,000 nM); PAg, Ag not defined
# T2 construct: expressed in transfected cells
# T2 sequence (P43115 1-390): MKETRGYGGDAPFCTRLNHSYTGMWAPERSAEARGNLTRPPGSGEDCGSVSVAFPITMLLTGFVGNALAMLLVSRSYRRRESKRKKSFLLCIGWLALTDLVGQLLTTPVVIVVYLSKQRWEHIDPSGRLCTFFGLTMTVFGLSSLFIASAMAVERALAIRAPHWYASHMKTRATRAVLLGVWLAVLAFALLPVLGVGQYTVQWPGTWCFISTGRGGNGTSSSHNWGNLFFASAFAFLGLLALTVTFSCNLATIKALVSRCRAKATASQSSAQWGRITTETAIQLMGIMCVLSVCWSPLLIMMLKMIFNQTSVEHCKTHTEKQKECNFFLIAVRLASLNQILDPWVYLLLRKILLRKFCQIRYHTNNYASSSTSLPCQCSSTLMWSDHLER
# Description: The above compounds were tested for PG antagonist activity as follows using human recombinant prostanoid receptor (DP1, EP1-4, FP, IP and TP) stable cell lines:
# In order to measure the response of Gs and Gi coupled prostanoid receptors as a Ca^2+ signal, chimeric G protein cDNAs were used. Stable cell lines over-expressing human prostanoid DP1, EP1-4, FP, IP, and TP receptors were established as follows:
# Briefly, human prostanoid DP1, EP2, and EP4 receptor cDNAs were co-transfected with chimeric Gqs cDNA containing a haemagglutanin (HA) epitope; human prostanoid EP3 receptors were co-transfected with chimeric Gqi-HA; human EP1, FP, IP, and TP receptor cDNAs were expressed with no exogenous G-proteins. Gqs and Gqi chimeric cDNAs (Molecular Devices, Sunnyvale, Calif., U.S.A.), as well as cDNAs of prostanoid receptors, were cloned into a pCEP4 vector with a hygromycin B selection marker. Transfection into HEK-293 EBNA (Epstein-Barr virus nuclear antigen) cells was achieved by the FuGENE 6 transfection Reagent (Roche Applied Science, Indianapolis, Ind., USA). Stable transfectants were selected according to hygromycin resistance. Because Gqs and Gqi contained an HA epitope, G-protein expression was detected by Western blotting analysis using anti-mouse HA monoclonal antibody and horseradish peroxidase (HRP)-conjugated secondary antibody, while functional expression of prostanoid receptors was detected by FLIPR screening (Matias et al., 2004). These stable cell lines were validated using previously published antagonists at 10 μM against serial dilutions of standard agonists by FLIPR functional assays for Ca^2+ Signaling (as described below).
# Ca^2+ signaling studies were performed using a FLIPR TETRA system (Molecular Devices, Sunnyvale, Calif., USA) in the 384-format. This is a high-throughput instrument for cell-based assays to monitor Ca^2+ signaling associated with GPCRs and ion channels. Cells were seeded at a density of 5×10^4 cells/well in BioCoat poly-D-lysine coated, black wall, clear bottom 384-well plates (BD Biosciences, Franklin lakes, NJ, USA) and allowed to attach overnight in an incubator at 37° C. The cells were then washed twice with HBSS-HEPES buffer (Hanks' balanced salt solution without bicarbonate and phenol red, 20 mM HEPES, pH 7.4) using an ELx405 Select CW Microplate Washer (BioTek, Winooski, Vt., USA). After 60 min of dye-loading in the dark using the Ca^2+-sensitive dye Fluo-4AM (Invitrogen, Carlsbad, Calif., USA), at a final concentration of 2×10^−6M, the plates were washed 4 times with HBSS-HEPES buffer to remove excess dye and leaving 50 μl of buffer in each well. The plates were then placed in the FLIPR TETRA instrument and allowed to equilibrate at 37° C. AGN-211377 was added in a 25 μl volume to each well to give final concentrations of 0.1 μM, 0.3 μM, 1 μM, 3 μM, 10 μM, and 30 μM; or 0.067 μM, 0.1 μM, 0.2 μM, 0.3 μM, 0.67 μM, and 1 μM for cells over-expressing TP receptors. After 4.5 minutes, a 7-point serial dilution of the standard agonist for the corresponding receptor, in a 25 μl volume was injected at the final concentrations from 10^−11M to 10^−5M in 10-fold serial dilution increments for cells expressing human recombinant DP1, EP1, EP2, EP3, EP4, FP, and IP receptors. The dose range for the standard agonist for human recombinant TP receptors was from 10^−12 M to 10^−6 M. HBSS-HEPES buffer was used as the negative control for the standard agonists. Cells were excited with LED (light emitting diode) excitation at 470-495 nm and emission was measured through an emission filter at 515-575 nm. Assay plates were read for 3.5 minutes using the FLIPR^TETRA. The peak increase in fluorescence intensity was recorded for each well. On each plate, negative controls, dose response of positive controls, and co-treatments of antagonist-agonist for each dose were in triplicates.
# Standard agonists were as follows: DP=BW 245C, EP1-EP4=PGE2, FP=17-phenyl-PGF2α, IP=Cicaprost, and TP=U-46619. […]
# [3] = molecular target: T3, human prostanoid EP4 receptor (Homo sapiens, UniProt P35408); assay: FLIPR Ca2+ signaling antagonist assay, EP4 receptor stable cell line; details: HEK-293 EBNA stable cell line; standard agonist PGE2; NA = inactive (no antagonism or Kb 10,000 nM); PAg, Ag not defined
# T3 construct: expressed in transfected cells
# How it was run: (§1)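 Peak Fluo-4 fluorescence (ex 470–495, em 515–575 nm) was read for 3.5 min on FLIPR after agonist injection and expressed relative to 10^−6 M standard agonist. Cells were HEK-293 EBNA transfectants. Test compound was added 4.5 min beforehand at 0.1–30 μM, or 0.067–1 μM for TP.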
# [4] = molecular target: T4, human prostanoid IP receptor (Homo sapiens, UniProt P43119); assay: FLIPR Ca2+ signaling antagonist assay, IP receptor stable cell line; details: HEK-293 EBNA stable cell line; standard agonist Cicaprost; NA = inactive (no antagonism or Kb 10,000 nM); PAg, Ag not defined
# T4 construct: expressed in transfected cells
# How it was run: as §1
# T4 sequence (P43119 whole entry): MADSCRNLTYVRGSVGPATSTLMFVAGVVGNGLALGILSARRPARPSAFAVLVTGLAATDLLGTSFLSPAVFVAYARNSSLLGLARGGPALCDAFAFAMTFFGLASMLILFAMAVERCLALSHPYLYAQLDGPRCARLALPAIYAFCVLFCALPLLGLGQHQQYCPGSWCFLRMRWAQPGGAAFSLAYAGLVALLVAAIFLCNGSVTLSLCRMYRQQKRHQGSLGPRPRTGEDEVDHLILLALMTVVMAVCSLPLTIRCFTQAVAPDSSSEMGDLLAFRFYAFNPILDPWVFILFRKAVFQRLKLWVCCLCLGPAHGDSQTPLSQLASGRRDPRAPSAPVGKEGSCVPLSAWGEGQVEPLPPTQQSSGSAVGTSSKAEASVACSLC
# T3 sequence (P35408 whole entry): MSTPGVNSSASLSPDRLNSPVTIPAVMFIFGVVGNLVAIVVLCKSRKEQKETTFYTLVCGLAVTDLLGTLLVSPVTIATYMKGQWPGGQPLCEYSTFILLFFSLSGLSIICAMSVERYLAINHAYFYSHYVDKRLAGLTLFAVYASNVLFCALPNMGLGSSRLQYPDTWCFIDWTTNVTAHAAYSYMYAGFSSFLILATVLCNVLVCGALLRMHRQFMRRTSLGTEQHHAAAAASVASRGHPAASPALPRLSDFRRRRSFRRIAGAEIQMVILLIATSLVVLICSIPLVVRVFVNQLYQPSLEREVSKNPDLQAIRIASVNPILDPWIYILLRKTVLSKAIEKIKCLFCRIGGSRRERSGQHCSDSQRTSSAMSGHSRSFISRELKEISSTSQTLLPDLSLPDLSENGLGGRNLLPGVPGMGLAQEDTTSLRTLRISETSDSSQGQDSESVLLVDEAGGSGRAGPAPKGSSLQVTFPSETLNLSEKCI
SMILES,Kb [1] [nM],Kb [2] [nM],Kb [3] [nM],Kb [4] [nM],EP1 (FLIPR) Kb [1],IP (FLIPR) Kb [4],EP4 (FLIPR) Kb [3],EP3 (FLIPR) Kb [2]
"Cc1cc(CCC(=O)NS(=O)(=O)c2ccccc2)nn1Cc1cc(Cl)ccc1OCc1ccc(Cl)cc1 [Example 24, N-(3-[1-(5-Chloro-2-(4-chlorobenzyloxy)benzyl)-5-methyl-1H-pyrazol-3-yl]-propionyl)benzenesulfonamide]",50,2500,900,1000,,,,
"CCC(CC)COc1ccc(Br)cc1Cn1nc(CCC(=O)NS(=O)(=O)C(F)(F)F)cc1C [Example 17, N-(3-{1-[5-Bromo-2-(2-ethyl-butoxy)-benzyl]-5-methyl-1H-pyrazol-3-yl}-propionyl)-C,C,C-trifluoro-methanesulfonamide]",15,1000,35,2700,,,,
"Cc1cc(CCC(=O)O)nn1Cc1cc(C(F)(F)F)ccc1OCc1ccc(Cl)cc1 [Example 52, 3-[1-[2-(4-Chloro-benzyloxy)-5-trifluoromethyl-benzyl]-5-methyl-1H-pyrazol-3-yl]-propionic acid]",5,2800,1500,,,PAg,,
"CCCC(C)COc1ccc(Br)cc1Cn1nc(CCC(=O)O)cc1C (stereo not drawn) [Example 8, 3-[1-(5-Bromo-2-(2-methyl-pentyloxy)-benzyl)-5-methyl-1H-pyrazol-3-yl]-propionic acid]",40,6400,400,1700,,,,
"Cc1cc(CCC(=O)O)nn1Cc1cc(Cl)ccc1OCC(C)(C)C [Example 35, 3-[1-(5-Chloro-2-(2,2-dimethylropoxy)benzyl)-5-methyl-1H-pyrazol-3-yl]-propionic acid]",100,5400,500,3700,,,,
"CCC(CC)COc1ccc(Br)cc1Cn1nc(CCC(=O)O)cc1C(C)(C)C [Example 57, 3-{1-[5-Bromo-2-(2-ethyl-butoxy)-benzyl]-5-tert-butyl-1H-pyrazol-3-yl}-propionic acid]",150,6600,700,800,,,,
"CCC(CC)COc1ccc(Br)cc1Cn1nc(CCC(=O)O)cc1C(C)C [Example 55, 3-{1-[5-Bromo-2-(2-ethyl-butoxy)-benzyl]-5-isopropyl-1H-pyrazol-3-yl}-propionic acid]",60,3700,80,1100,,,,
"CCC(CC)COc1ccc(Br)cc1Cn1nc(CCC(=O)O)cc1C(F)(F)F [Example 58, 3-{1-[5-Bromo-2-(2-ethyl-butoxy)-benzyl]-5-trifluororomethyl-1H-pyrazol-3-yl}-propionic acid]",370,,,,,PAg,PAg,PAg

# Second part, led by results:
Kb [1] [nM],Kb [2] [nM],Kb [3] [nM],Kb [4] [nM],EP1 (FLIPR) Kb [1],SMILES,IP (FLIPR) Kb [4],EP4 (FLIPR) Kb [3],EP3 (FLIPR) Kb [2]
50,3200,80,3100,,"Cc1cc(CC(C)(C)C(=O)O)nn1Cc1cc(Br)ccc1OCC1CCCC1 [Example 71, 3-{1-[5-Bromo-2-(2-cyclopentylmethoxy)-benzyl]-5-methyl-1H-pyrazol-3-yl}-2,2-dimethyl-propionic acid]",,,
30,8300,1000,8800,,"Cc1cc(CCC(=O)O)nn1Cc1cc(Br)ccc1OCC1(C(F)(F)F)CCC1 [Example 13, 3-[1-(5-Bromo-2-(1-trifluoromethylcyclobutylmethoxy)-benzyl)-5-methyl-1H-pyrazol-3-yl]-propionic acid]",,,
6,2700,600,1600,,"Cc1cc(CCC(=O)O)nn1Cc1cc(Cl)ccc1C#CC1CCCC1 [Example 73, 3-{1-[5-Chloro-2-cyclopentylethynyl-benzyl]-5-methyl-1H-pyrazol-3-yl}-propionic acid]",,,
6,4500,,7900,,"Cc1cc(CCC(=O)NS(=O)(=O)CC(F)(F)F)nn1Cc1cc(Cl)ccc1OCc1ccc(Cl)cc1 [Example 25, 2,2,2-trifluoroethanesulfonic acid-(3-[1-(5-Chloro-2-(4-chlorobenzyloxy)benzyl)-5-methyl-1H-pyrazol-3-yl]-propionyl)amide]",,Ag,
6,1700,80,800,,"Cc1cc(CCC(=O)NS(=O)(=O)C(F)(F)F)nn1Cc1cc(Cl)ccc1OCC1CCCC1 [Example 43, N-(3-[1-(5-Chloro-2-cyclopentylmethoxybenzyl)-5-methyl-1H-pyrazol-3-yl]-propionyl)C,C,C-trifluoromethanesulfon amide]",,,
35,7100,200,1500,,"Cc1cc(CCC(=O)O)nn1Cc1cc(OC(F)(F)F)ccc1OCC1CCCC1 [Example 50, 3-[1-(2-Cyclopentylmethoxy-5-trifluoromethoxy-benzyl)-5-methyl-1H-pyrazol-3-yl]-propionic acid]",,,
,500,150,400,PAg,"Cc1cc(CCC(=O)NS(=O)(=O)C(F)(F)F)nn1Cc1cc(Cl)ccc1OCc1ccc(Cl)cc1Cl [Example 27, N-(3-[1-(5-Chloro-2-(2,4-dichlorobenzyloxy)benzyl)-5-methyl-1H-pyrazol-3-yl]-propionyl)C,C,C-trifluoromethanesulfonamide]",,,
